# In patent publication US20260130901A1, “CGRP RECEPTOR ANTAGONIST FOR THE TREATMENT OF MIGRAINE” (ALLERGAN PHARMACEUTICALS INTERNATIONAL LIMITED, priority 2022, published 2026):
# System: participants with migraine (qualifying prodrome events)
# Assay: Phase 3 crossover study: absence of prodrome symptoms over time
# Assay type: in vivo, human
# Conditions: 100 mg in prodrome; for Absence of dizziness, Nonresponder (%) / Absence of dizziness, Odds ratio vs. placebo / Absence of dizziness, Responder (%) / Absence of fatigue, Nonresponder (%) / Absence of fatigue, Odds ratio vs. placebo / Absence of fatigue, Responder (%) / Absence of neck pain, Nonresponder (%) / Absence of neck pain, Odds ratio vs. placebo / Absence of neck pain, Responder (%) / Absence of sensitivity to light, Nonresponder (%) / Absence of sensitivity to light, Odds ratio vs. placebo / Absence of sensitivity to light, Responder (%) / Absence of sensitivity to sound, Nonresponder (%) / Absence of sensitivity to sound, Odds ratio vs. placebo / Absence of sensitivity to sound, Responder (%): participants with symptom at predose
# Experimental: A phase 3, multicenter, randomized, double-blind, placebo-controlled, crossover study was carried out to evaluate the efficacy, safety, and tolerability of oral ubrogepant in the acute treatment of migraine when administered during the prodrome. The study evaluated whether treatment during the initial phase of a migraine attack (i.e., the prodrome or premonitory phase) prior to the onset of headache, can attenuate the severity of the headache phase and reduce disability.
# Eligible participants were randomized (1:1) to treatment sequences A or B in this crossover study. Participants randomized to Treatment Sequence A received placebo to treat their first qualifying prodrome event and ubrogepant 100 mg to treat their second qualifying prodrome event. For those randomized to Treatment Sequence B, they received the reverse: ubrogepant 100 mg to treat their first qualifying prodrome event and placebo to treat their second qualifying prodrome event.
# N1 is the number of participants with the prodrome symptom at predose. N2 is the number of participants with non-missing prodrome symptom intensity assessment by timepoint after dose. The proportion of events with absence of sensitivity to light after ubrogepant 100 mg was numerically greater than after placebo, starting at 2 hours post-dose and extending through 48 hours (nominal P≤0.0109 for hours 2-8).
# N1 is the number of participants with the prodrome symptom at predose. N2 is the number of participants with non-missing prodrome symptom intensity assessment by timepoint after dose. The difference in response rates was nominally significant for the ubrogepant 100 mg dose group compared with placebo as early as 3 hours post-dose administered during the prodrome.
# N1 is the number of participants with the prodrome symptom at predose. N2 is the number of participants with non-missing prodrome symptom intensity assessment by timepoint after dose.
compound,measurement,setting,value
"C[C@@H]1[C@H](c2ccccc2)C[C@H](NC(=O)c2cnc3c(c2)C[C@@]2(C3)C(=O)Nc3ncccc32)C(=O)N1CC(F)(F)F [Ubrogepant, (3′S)—N-((3S,5S,6R)-6-methyl-2-oxo-5-phenyl-1-(2,2,2-trifluoroethyl)piperidin-3-yl)-2′-oxo-1′,2′,5,7-tetrahydrospiro[cyclopenta[b]pyridine-6,3′-pyrrolo[2,3-b]pyridine]-3-carboxamide]","Response rates vs placebo, absence of dizziness",,Numerically higher response rates
same,"Response rates vs placebo, absence of sensitivity to sound",,Numerically higher response rates
same,"Absence of dizziness, Nonresponder (%)",1 Hour post dose,(90.0) %
same,"Absence of dizziness, Odds ratio vs. placebo",1 Hour post dose,0.96
same,"Absence of dizziness, Responder (%)",1 Hour post dose,(10.0) %
same,"Absence of fatigue, Nonresponder (%)",1 Hour post dose,(95.1) %
same,"Absence of fatigue, Odds ratio vs. placebo",1 Hour post dose,1.23
same,"Absence of fatigue, Responder (%)",1 Hour post dose,(4.9) %
same,"Absence of neck pain, Nonresponder (%)",1 Hour post dose,(95.8) %
same,"Absence of neck pain, Odds ratio vs. placebo",1 Hour post dose,1.43
same,"Absence of neck pain, Responder (%)",1 Hour post dose,(4.2) %
same,"Absence of sensitivity to light, Nonresponder (%)",1 Hour post dose,(95.2) %
same,"Absence of sensitivity to light, Odds ratio vs. placebo",1 Hour post dose,1.08
same,"Absence of sensitivity to light, Responder (%)",1 Hour post dose,(4.8) %
same,"Absence of sensitivity to sound, Nonresponder (%)",1 Hour post dose,(92.0) %
same,"Absence of sensitivity to sound, Odds ratio vs. placebo",1 Hour post dose,1.23
same,"Absence of sensitivity to sound, Responder (%)",1 Hour post dose,(8.0) %
same,"Absence of dizziness, Nonresponder (%)",2 Hours post dose,(70.7) %
same,"Absence of dizziness, Odds ratio vs. placebo",2 Hours post dose,1.17
same,"Absence of dizziness, Responder (%)",2 Hours post dose,(29.3) %
same,"Absence of fatigue, Nonresponder (%)",2 Hours post dose,(81.6) %
same,"Absence of fatigue, Odds ratio vs. placebo",2 Hours post dose,1.43
same,"Absence of fatigue, Responder (%)",2 Hours post dose,(18.4) %
same,"Absence of neck pain, Nonresponder (%)",2 Hours post dose,(84.6) %
same,"Absence of neck pain, Odds ratio vs. placebo",2 Hours post dose,1.39
same,"Absence of neck pain, Responder (%)",2 Hours post dose,(15.4) %
same,"Absence of sensitivity to light, Nonresponder (%)",2 Hours post dose,(80.5) %
same,"Absence of sensitivity to light, Odds ratio vs. placebo",2 Hours post dose,1.72
same,"Absence of sensitivity to light, Responder (%)",2 Hours post dose,(19.5) %
same,"Absence of sensitivity to sound, Nonresponder (%)",2 Hours post dose,(74.7) %
same,"Absence of sensitivity to sound, Odds ratio vs. placebo",2 Hours post dose,1.59
same,"Absence of sensitivity to sound, Responder (%)",2 Hours post dose,(25.3) %
same,"Absence of dizziness, Nonresponder (%)",3 Hours post dose,(60.7) %
same,"Absence of dizziness, Odds ratio vs. placebo",3 Hours post dose,1.60
same,"Absence of dizziness, Responder (%)",3 Hours post dose,(39.3) %
same,"Absence of fatigue, Nonresponder (%)",3 Hours post dose,(72.7) %
same,"Absence of fatigue, Odds ratio vs. placebo",3 Hours post dose,1.85
same,"Absence of fatigue, Responder (%)",3 Hours post dose,(27.3) %
same,"Absence of neck pain, Nonresponder (%)",3 Hours post dose,(71.1) %
same,"Absence of neck pain, Odds ratio vs. placebo",3 Hours post dose,2.04
same,"Absence of neck pain, Responder (%)",3 Hours post dose,(28.9) %
same,"Absence of sensitivity to light, Nonresponder (%)",3 Hours post dose,(67.6) %
same,"Absence of sensitivity to light, Odds ratio vs. placebo",3 Hours post dose,1.58
same,"Absence of sensitivity to light, Responder (%)",3 Hours post dose,(32.4) %
same,"Absence of sensitivity to sound, Nonresponder (%)",3 Hours post dose,(64.4) %
same,"Absence of sensitivity to sound, Odds ratio vs. placebo",3 Hours post dose,1.45
same,"Absence of sensitivity to sound, Responder (%)",3 Hours post dose,(35.6) %
same,"Absence of dizziness, Nonresponder (%)",4 Hours post dose,(50.0%
same,"Absence of dizziness, Odds ratio vs. placebo",4 Hours post dose,1.37
same,"Absence of dizziness, Responder (%)",4 Hours post dose,(50.0) %
same,"Absence of fatigue, Nonresponder (%)",4 Hours post dose,(65.2) %
same,"Absence of fatigue, Odds ratio vs. placebo",4 Hours post dose,1.93
same,"Absence of fatigue, Responder (%)",4 Hours post dose,(34.8) %
same,"Absence of neck pain, Nonresponder (%)",4 Hours post dose,(61.3) %
same,"Absence of neck pain, Odds ratio vs. placebo",4 Hours post dose,2.27
same,"Absence of neck pain, Responder (%)",4 Hours post dose,(38.7) %
same,"Absence of sensitivity to light, Nonresponder (%)",4 Hours post dose,(55.2) %
same,"Absence of sensitivity to light, Odds ratio vs. placebo",4 Hours post dose,1.46
same,"Absence of sensitivity to light, Responder (%)",4 Hours post dose,(44.8) %
same,"Absence of sensitivity to sound, Nonresponder (%)",4 Hours post dose,(49.3) %
same,"Absence of sensitivity to sound, Odds ratio vs. placebo",4 Hours post dose,1.97
same,"Absence of sensitivity to sound, Responder (%)",4 Hours post dose,(50.7) %
same,"Absence of dizziness, Nonresponder (%)",6 Hours post dose,(37.8) %
same,"Absence of dizziness, Odds ratio vs. placebo",6 Hours post dose,1.45
same,"Absence of dizziness, Responder (%)",6 Hours post dose,(62.2) %
same,"Absence of fatigue, Nonresponder (%)",6 Hours post dose,(56.3) %
same,"Absence of fatigue, Odds ratio vs. placebo",6 Hours post dose,1.46
same,"Absence of fatigue, Responder (%)",6 Hours post dose,(43.7) %
same,"Absence of neck pain, Nonresponder (%)",6 Hours post dose,(52.0) %
same,"Absence of neck pain, Odds ratio vs. placebo",6 Hours post dose,1.68
same,"Absence of neck pain, Responder (%)",6 Hours post dose,(48.0) %
same,"Absence of sensitivity to light, Nonresponder (%)",6 Hours post dose,(42.1) %
same,"Absence of sensitivity to light, Odds ratio vs. placebo",6 Hours post dose,1.75
same,"Absence of sensitivity to light, Responder (%)",6 Hours post dose,(57.9) %
same,"Absence of sensitivity to sound, Nonresponder (%)",6 Hours post dose,(43.3) %
same,"Absence of sensitivity to sound, Odds ratio vs. placebo",6 Hours post dose,1.44
same,"Absence of sensitivity to sound, Responder (%)",6 Hours post dose,(56.7) %
same,"Absence of dizziness, Nonresponder (%)",8 Hours post dose,(27.9) %
same,"Absence of dizziness, Odds ratio vs. placebo",8 Hours post dose,1.33
same,"Absence of dizziness, Responder (%)",8 Hours post dose,(72.1) %
same,"Absence of fatigue, Nonresponder (%)",8 Hours post dose,(46.1) %
same,"Absence of fatigue, Odds ratio vs. placebo",8 Hours post dose,1.87
same,"Absence of fatigue, Responder (%)",8 Hours post dose,(53.9) %
same,"Absence of neck pain, Nonresponder (%)",8 Hours post dose,(49.7) %
same,"Absence of neck pain, Odds ratio vs. placebo",8 Hours post dose,1.40
same,"Absence of neck pain, Responder (%)",8 Hours post dose,(50.3) %
same,"Absence of sensitivity to light, Nonresponder (%)",8 Hours post dose,(28.9) %
same,"Absence of sensitivity to light, Odds ratio vs. placebo",8 Hours post dose,2.40
same,"Absence of sensitivity to light, Responder (%)",8 Hours post dose,(71.1) %
same,"Absence of sensitivity to sound, Nonresponder (%)",8 Hours post dose,(33.8) %
same,"Absence of sensitivity to sound, Odds ratio vs. placebo",8 Hours post dose,1.75
same,"Absence of sensitivity to sound, Responder (%)",8 Hours post dose,(66.2) %
same,"Absence of dizziness, Nonresponder (%)",24 Hours post dose,(11.5) %
same,"Absence of dizziness, Odds ratio vs. placebo",24 Hours post dose,1.82
same,"Absence of dizziness, Responder (%)",24 Hours post dose,(88.5) %
same,"Absence of fatigue, Nonresponder (%)",24 Hours post dose,(31.4) %
same,"Absence of fatigue, Odds ratio vs. placebo",24 Hours post dose,1.19
same,"Absence of fatigue, Responder (%)",24 Hours post dose,(68.6) %
same,"Absence of neck pain, Nonresponder (%)",24 Hours post dose,(28.6) %
same,"Absence of neck pain, Odds ratio vs. placebo",24 Hours post dose,1.42
same,"Absence of neck pain, Responder (%)",24 Hours post dose,(71.4) %
same,"Absence of sensitivity to light, Nonresponder (%)",24 Hours post dose,(18.1) %
same,"Absence of sensitivity to light, Odds ratio vs. placebo",24 Hours post dose,1.37
same,"Absence of sensitivity to light, Responder (%)",24 Hours post dose,(81.9) %
same,"Absence of sensitivity to sound, Nonresponder (%)",24 Hours post dose,(16.9) %
same,"Absence of sensitivity to sound, Odds ratio vs. placebo",24 Hours post dose,1.38
same,"Absence of sensitivity to sound, Responder (%)",24 Hours post dose,(83.1) %
same,"Absence of dizziness, Nonresponder (%)",48 Hours post dose,(10.5) %
same,"Absence of dizziness, Odds ratio vs. placebo",48 Hours post dose,1.66
same,"Absence of dizziness, Responder (%)",48 Hours post dose,(89.5) %
same,"Absence of fatigue, Nonresponder (%)",48 Hours post dose,(22.9) %
same,"Absence of fatigue, Odds ratio vs. placebo",48 Hours post dose,1.22
same,"Absence of fatigue, Responder (%)",48 Hours post dose,(77.1) %
same,"Absence of neck pain, Nonresponder (%)",48 Hours post dose,(22.2) %
same,"Absence of neck pain, Odds ratio vs. placebo",48 Hours post dose,1.01
same,"Absence of neck pain, Responder (%)",48 Hours post dose,(77.8) %
same,"Absence of sensitivity to light, Nonresponder (%)",48 Hours post dose,(11.8) %
same,"Absence of sensitivity to light, Odds ratio vs. placebo",48 Hours post dose,1.52
same,"Absence of sensitivity to light, Responder (%)",48 Hours post dose,(88.2) %
same,"Absence of sensitivity to sound, Nonresponder (%)",48 Hours post dose,(11.7) %
same,"Absence of sensitivity to sound, Odds ratio vs. placebo",48 Hours post dose,0.93
same,"Absence of sensitivity to sound, Responder (%)",48 Hours post dose,(88.3) %
same,Effect on the most commonly reported prodrome symptoms compared with placebo,mITT,ameliorated the most commonly reported prodrome symptoms
same,"Earliest time at which difference in response rates vs placebo was nominally significant, absence of fatigue",post-dose,3 h
same,"Earliest time at which difference in response rates vs placebo was nominally significant, absence of neck pain",post-dose,3 h
